# Experimental data taken from patent US20140005268A1, “PHARMACEUTICAL COMPOSITION FOR TREATING OXIDATIVE STRESS-INDUCED PATHOLOGY AND USE THEREOF” (priority 2011, published 2014).
# System: hemorrhoids (Goligher type I, II, III and IV)
# Assay: Clinical test of rectally administered suppositories in volunteers with hemorrhoids (Goligher's classification)
# Assay type: in vivo
# Conditions: adult human beings of both genders, 20 to 80 years old, daily dosage as in Table 1, average ± standard error, n=20
# Description: For such, various volunteers were randomly selected.
# In short, volunteers, aging from 20 to 80 years old, were tested and observed for 28 days by rectally administering suppositories of 2 g each, containing the active ingredients in the indicated proportion: methionine (170 mg/day), cysteine (20 mg/day) and phenylalanine (10 mg/day) each.
# The indicated values in the Table are average values in 20 experiments±standard errors (n=20).
Compound,Bleeding inhibition after 72 h (%),Relapse after 5 years (%)
N[C@@H](CS)C(=O)O [L-cysteine],10 ± 1,80 ± 8
N[C@@H](Cc1ccccc1)C(=O)O [L-phenylalanine],2 ± 1,90 ± 9
CSCC[C@H](N)C(=O)O [L-methionine],70 ± 7,15 ± 2
